Like-named read-outs stand apart in the source and are kept apart here. Non-standard residues stand in square brackets, D forms with d. Residues, ends and D or L forms follow the SMILES beside them. Where only a bound is given, the exact number is not on record here.

Data set [1] in a line: stability against proteolysis in human plasma by HPLC/MS. It is filed as in vitro ADME. The following applies: for remaining at 96 h, 350 µM: read-out: C96h, percent of the initial peptide concentration remaining after 96 h; for site of the first proteolytic cleavage: HPLC/MS; for stability in human plasma in words: up to 96 h, compared to TAPP; for half-life / half-life at […]: read-out: half-life time (T1/2) in human plasma (converted). On the procedure:
The results are graphically presented in Figure 7 and the representative HPLC chromatograms are given in Figures SM-STAB-1 to SM-STAB-22 in Supplementary Materials. […] After 96 h, more than 90% of the initial peptide concentration (C96h > 90%) remained in the test sample. This is in marked contrast to endomorphin-2 (Tyr-Pro-Phe-Phe-NH2) that, in the very same conditions, is rapidly degraded with half-life time (T1/2) of only 30 min.
The determination of plasma stability was performed according to a previously described protocol with minor modifications. Human plasma for testing was obtained from a healthy donor. […] Portions of the plasma (100 μL) were dispensed into Eppendorf tubes and equilibrated at 37 ± 1 °C for 5 min, before adding 100 μL of the stock solution of each tested peptide. Samples of the test solution were taken and analyzed at several time points (0, 1, 2, 3, 4, 5, 6, 12, 24, 48, and 96 h of the experiment).
In order to precipitate the plasma proteins, 400 μL ethanol (98%) was added to the samples, whereafter shaking (1 min) and cooling in 4 °C (5 min) followed. Subsequently, the samples were centrifuged for 10 min at 2000 g. The supernatant (20 μL) was immediately analyzed by HPLC/MS using the LCMS-2010EV Shimadzu apparatus with a Phenomenex Jupiter 4u Proteo 90A, C12 (25 cm × 2 mm × 4 μm) column. The chromatography was performed in reversed-phase system (solvents A: 0.05% FA in water, B: 0.05% FA in acetonitrile) with a non-linear gradient was used (1–31% B in 20 min followed by an increase to 97% B from 20 to 30 min) at a solvent flow of 0.5 mL/min. The activity of the plasma was confirmed by using endomorphin-2 ([…]) as a control sample. The results of the HPLC/MS analyses allowed for quantitative determination of the concentration changes of the tested peptides. Furthermore, it was possible to indicate the location of the first proteolytic cleavage.

In another data set the target is T1, δ-opioid receptor (δOR) (Rattus norvegicus, UniProt P33533).
T1 construct: from tissue; host or cells: rat brain homogenate (membrane fractions)
T1 sequence (P33533 whole entry): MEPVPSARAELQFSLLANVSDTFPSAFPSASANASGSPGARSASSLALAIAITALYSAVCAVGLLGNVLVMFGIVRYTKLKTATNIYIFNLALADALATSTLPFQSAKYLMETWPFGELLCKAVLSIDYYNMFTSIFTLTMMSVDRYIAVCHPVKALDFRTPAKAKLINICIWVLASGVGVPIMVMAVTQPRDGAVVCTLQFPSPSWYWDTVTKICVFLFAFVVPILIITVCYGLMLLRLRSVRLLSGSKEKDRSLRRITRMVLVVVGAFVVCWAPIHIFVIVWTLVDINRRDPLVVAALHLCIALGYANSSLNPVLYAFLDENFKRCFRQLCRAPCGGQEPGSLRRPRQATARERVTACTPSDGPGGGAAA
Put plainly: competitive radioligand displacement assay, δOR, [3H]DELT II, rat brain homogenate membranes. It is filed as binding. As to conditions: for δOR affinity in words: [3H]DELT II displacement, compared to parent TAPP. On the procedure:
(§1) The determinations were performed by a competitive radioligand displacement assay with selective radioligands.
(§2) Membrane fractions of rat brain Homogenate were incubated at 25 °C for 60 mins in the presence of radioligands (0.5 nM) specific for each receptor (μOR: [^3H]DAMGO and δOR: [^3H]DELT II, obtained as a generous gift from Prof. Géza Tóth) and the increasing concentrations of the tested compounds (10^−11 up to 10^−5 M, each concentration in duplicate). For measuring non-specific binding, 10 μM naloxone was used as the competitor. The assay buffer contained 50mM Tris-HCl (pH 7.4), bovine serum albumin (0.1 mg/mL), bacitracin (30 μg/mL), bestatin (30 μM), captopril (10 μM), and phenylmethylsulfonyl fluoride (0.1 mM) in the total reaction volume of 1 mL. After the incubation, the binding reactions were terminated by rapid filtration with M-24 Cell Harvester (Brandel/USA) through GF/B Whatman glass fibre strips. The filters were pre-soaked with 0.5% PEI before harvesting in order to minimize non-specific binding. Filter discs were placed separately in 24-well plates and immersed with the Optiphase Supermix scintillation cocktail (Perkin Elmer, Waltham, MA, USA). Radioactivity was measured using a MicroBeta LS Trilux scintillation counter (PerkinElmer, Waltham, MA, USA).
(Displacement assays read how much labelled ligand stays bound in the presence of the test substance.)

The next data set deals with T2, μ-opioid receptor (μOR) (Rattus norvegicus, UniProt P33535).
T2 construct: from tissue; host or cells: rat brain homogenate (membrane fractions)
T2 sequence (P33535 whole entry): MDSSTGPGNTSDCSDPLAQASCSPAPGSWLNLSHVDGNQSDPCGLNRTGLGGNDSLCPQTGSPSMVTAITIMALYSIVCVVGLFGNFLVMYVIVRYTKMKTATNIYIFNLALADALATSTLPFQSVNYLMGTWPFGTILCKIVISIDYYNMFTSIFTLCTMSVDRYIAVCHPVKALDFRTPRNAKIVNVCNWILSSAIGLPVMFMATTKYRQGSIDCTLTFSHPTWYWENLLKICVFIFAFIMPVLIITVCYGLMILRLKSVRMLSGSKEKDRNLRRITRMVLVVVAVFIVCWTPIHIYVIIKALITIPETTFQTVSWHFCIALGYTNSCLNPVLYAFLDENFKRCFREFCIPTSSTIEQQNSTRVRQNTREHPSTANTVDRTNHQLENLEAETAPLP
Put plainly: competitive radioligand displacement assay, μOR, [3H]DAMGO, rat brain homogenate membranes. The following applies: for decrease in μOR affinity compared to the parent TAPP: ratio of IC50 versus TAPP. Type of data set: binding. On the procedure:
as §1, §2

A short description of data set [2]: Human plasma for testing was obtained from a healthy donor. As to conditions: 37 ± 1 °C, up to 96 h.
The mark [3] stands for this setting: radioligand 0.5 nM [3H]DAMGO, rat brain homogenate, mean of three determinations in duplicate, read-out: IC50 ± S.E.M. μOR.
The mark [4] stands for this setting: radioligand 0.5 nM [3H]DELT II, rat brain homogenate, mean of three determinations in duplicate, read-out: IC50 δOR.

`C[C@@H](NC(=O)[C@@H](N)Cc1ccc(O)cc1)C(=O)N[C@@H](Cc1ccccc1)C(=O)N[C@@H](Cc1ccccc1)C(N)=O` [compound 1, H-Tyr-D-Ala-Phe-Phe-NH2, reference compound] (HELM PEPTIDE1{Y.[dA].F.F.[am]}$$$$V2.0): the remaining at 96 h, 350 µM in data set [1] (37 °C) was above 90%. Besides, in data set [1], the “site of the first proteolytic cleavage” value is “C-terminal amide (deamidation)” and the “stability in human plasma in words” value was “resistant to proteolysis”. Further, at δ-opioid receptor (δOR), the IC50 turned out to be 616 nM and the “δOR affinity in words” value is reported as “low binding”.

Take `C[C@@H](NC(=O)[C@@H](CN)Cc1ccc(O)cc1)C(=O)N[C@@H](Cc1ccccc1)C(=O)N[C@@H](Cc1ccccc1)C(N)=O` [compound 8, [(R)-β^2hTyr^1]-TAPP*]: the IC50 on μ-opioid receptor (μOR) (setting [3]) was found to be 77.6 ± 2.4 nM. The “decrease in μOR affinity compared to the parent TAPP” value at μ-opioid receptor (μOR) was “about 15 fold”. Moreover, in data set [1], the “site of the first proteolytic cleavage” value is given as “C-terminal amide (deamidation)” and the “stability in human plasma in words” value was “stability similar to TAPPs”. Besides, on δ-opioid receptor (δOR), the “δOR affinity in words” value is “did not exhibit any measurable binding”. Besides, the IC50 at δ-opioid receptor (δOR) (setting [4]) is above 10000 nM.

As to `C[C@@H](NC(=O)[C@@H](CN)Cc1cccc(O)c1)C(=O)N[C@@H](Cc1ccccc1)C(=O)N[C@@H](Cc1ccccc1)C(N)=O` [compound 9, [(R)-β^2h-m-Tyr^1]-TAPP*], at μ-opioid receptor (μOR) (setting [3]), the IC50 amounted to 48.9 ± 2.3 nM. Also, in data set [1], the “site of the first proteolytic cleavage” value is “C-terminal amide (deamidation)” and the “stability in human plasma in words” value is given as “stability similar to TAPPs”. For the same compound, at δ-opioid receptor (δOR), the “δOR affinity in words” value was “did not exhibit any measurable binding”. Moreover, the IC50 at δ-opioid receptor (δOR) (setting [4]) was above 10000 nM.

In the case of `C[C@@H](CNC(=O)[C@@H](N)Cc1ccc(O)cc1)C(=O)N[C@@H](Cc1ccccc1)C(=O)N[C@@H](Cc1ccccc1)C(N)=O` [compound 10, [(S)-β^2hAla^2]-TAPP], the half-life in data set [1] (37 °C) was around 4.5 h.

On to `C[C@@H](NC(=O)[C@@H](N)Cc1ccc(O)cc1)C(=O)NC[C@@H](Cc1ccccc1)C(=O)N[C@@H](Cc1ccccc1)C(N)=O` [compound 11, [(R)-β^2hPhe^3]-TAPP], for which, at μ-opioid receptor (μOR), the IC50 was determined as 95.4 ± 2.5 nM and the “decrease in μOR affinity compared to the parent TAPP” value was “more than 10 fold”. The half-life at […] in data set [1] (37 °C) was around 40 h. Also, at δ-opioid receptor (δOR), the IC50 was 794 nM and the “δOR affinity in words” value is recorded as “at a level similar to the parent TAPP”.

In turn, `C[C@@H](NC(=O)[C@@H](N)Cc1ccc(O)cc1)C(=O)N[C@@H](Cc1ccccc1)C(=O)NC[C@@H](Cc1ccccc1)C(N)=O` [compound 12, [(R)-β^2hPhe^4]-TAPP] returned an IC50 on μ-opioid receptor (μOR) of 1.9 ± 2.4 nM. For the same compound, the remaining at 96 h, 350 µM in data set [1] (37 °C) was found to be 55%. On δ-opioid receptor (δOR), the IC50 came to 708 nM and the “δOR affinity in words” value is on record as “at a level similar to the parent TAPP”.

As for `C[C@@H](NC(=O)[C@H](CN)Cc1ccc(O)cc1)C(=O)N[C@@H](Cc1ccccc1)C(=O)N[C@@H](Cc1ccccc1)C(N)=O` [compound 13, [(S)-β^2hTyr^1]-TAPP*], the IC50 on μ-opioid receptor (μOR) (setting [3]) was 339 ± 5.1 nM. In data set [1], the “site of the first proteolytic cleavage” value is “C-terminal amide (deamidation)” and the “stability in human plasma in words” value was “stability similar to TAPPs”. The “δOR affinity in words” value on δ-opioid receptor (δOR) was “did not exhibit any measurable binding”. In addition, at δ-opioid receptor (δOR) (setting [4]), the IC50 is above 10000 nM.

In the case of `C[C@@H](NC(=O)[C@H](CN)Cc1cccc(O)c1)C(=O)N[C@@H](Cc1ccccc1)C(=O)N[C@@H](Cc1ccccc1)C(N)=O` [compound 14, [(S)-β^2h-m-Tyr^1]-TAPP*], the IC50 on μ-opioid receptor (μOR) (setting [3]) is 11.2 ± 6.3 nM; on δ-opioid receptor (δOR) (setting [4]) it was above 10000 nM. In data set [1], the “site of the first proteolytic cleavage” value is “C-terminal amide (deamidation)”. In data set [1], the “stability in human plasma in words” value is “stability similar to TAPPs”. Besides, on δ-opioid receptor (δOR), the “δOR affinity in words” value was “did not exhibit any measurable binding”.

Regarding `C[C@H](CNC(=O)[C@@H](N)Cc1ccc(O)cc1)C(=O)N[C@@H](Cc1ccccc1)C(=O)N[C@@H](Cc1ccccc1)C(N)=O` [compound 15, [(R)-β^2hAla^2]-TAPP], in data set [1] (37 °C), the half-life is around 4.5 h.

Compound `C[C@@H](NC(=O)[C@@H](N)Cc1ccc(O)cc1)C(=O)NC[C@H](Cc1ccccc1)C(=O)N[C@@H](Cc1ccccc1)C(N)=O` [compound 16, [(S)-β^2hPhe^3]-TAPP] had an IC50 on μ-opioid receptor (μOR) of 15.5 ± 2.5 nM. For the same compound, in data set [1] (37 °C), the remaining at 96 h, 350 µM was above 65%. On δ-opioid receptor (δOR), the IC50 stood at 890 nM and the “δOR affinity in words” value was “at a level similar to the parent TAPP”.

Turning to `C[C@@H](NC(=O)[C@@H](N)Cc1ccc(O)cc1)C(=O)N[C@@H](Cc1ccccc1)C(=O)NC[C@H](Cc1ccccc1)C(N)=O` [compound 17, [(S)-β^2hPhe^4]-TAPP], the IC50 at μ-opioid receptor (μOR) stood at 7.8 ± 4 nM; on δ-opioid receptor (δOR), 417 nM. Besides, the remaining at 96 h, 350 µM in data set [1] (37 °C) is around 90%. In addition, the “stability in human plasma in words” value in data set [1] is “equally resistant to proteolysis as the parent”. Moreover, at δ-opioid receptor (δOR), the “δOR affinity in words” value is given as “slight improvement in δOR affinity when compared to the parent peptide”.

For `NC(=O)[C@H](Cc1ccccc1)NC(=O)[C@H](Cc1ccccc1)NC(=O)[C@@H]1CCCN1C(=O)[C@@H](N)Cc1ccc(O)cc1` [endomorphin-2, Tyr-Pro-Phe-Phe-NH2, reference compound], in data set [1] (same conditions, control sample), the half-life at […] is 0.5 h.

With H-Y[dA]FF-NH2, the cleaved bond entry in data set [2] is “Phe4-NH2, first_seen”.

With [(R)-β^2h-m-Tyr^1]-TAPP*, the cleaved bond entry in data set [2] is “Phe4-NH2, first_seen”.

On to [(R)-β^2hAla^2]-TAPP, for which the cleaved bond result in data set [2] was “Tyr1-(R)-β^2hAla2, first_seen”.

In the case of [(R)-β^2hPhe^3]-TAPP, the cleaved bond entry in data set [2] is reported as “Tyr1-D-Ala2, first_seen”.

As for [(R)-β^2hPhe^4]-TAPP, in data set [2], the cleaved bond result is on record as “Tyr1-D-Ala2, first_seen”.

Regarding [(R)-β^2hTyr^1]-TAPP*, the cleaved bond entry in data set [2] is “Phe4-NH2, first_seen”.

With [(S)-β^2h-m-Tyr^1]-TAPP*, the cleaved bond result in data set [2] is “Phe4-NH2, first_seen”.

On to [(S)-β^2hAla^2]-TAPP, for which the cleaved bond result in data set [2] is recorded as “Tyr1-(S)-β^2hAla2, first_seen”.

With [(S)-β^2hPhe^3]-TAPP, in data set [2], the cleaved bond result was “Tyr1-D-Ala2, first_seen”.

[(S)-β^2hPhe^4]-TAPP: the cleaved bond result in data set [2] is listed as “Tyr1-D-Ala2, first_seen”.

[(S)-β^2hTyr^1]-TAPP *: the cleaved bond entry in data set [2] was “Phe4-NH2, first_seen”.

By IC50 is commonly meant the concentration needed to halve the response being measured.

For the origin of these results see paper PMC7288052 (Molecules, 2020).
